Measured values: publication PMC4467461, “Small-molecule activation of SERCA2a SUMOylation for the treatment of heart failure” (Nature Communications, 2015)

Target: T1, SUMO E1 SAE1 Q312A mutant (Homo sapiens, UniProt Q9UBE0+Q9UBT2, Q312A)
T1 construct: GST (N); made in house; host or cells: Escherichia coli BL21
T1 sequence (Q9UBE0 1-346 Q312A): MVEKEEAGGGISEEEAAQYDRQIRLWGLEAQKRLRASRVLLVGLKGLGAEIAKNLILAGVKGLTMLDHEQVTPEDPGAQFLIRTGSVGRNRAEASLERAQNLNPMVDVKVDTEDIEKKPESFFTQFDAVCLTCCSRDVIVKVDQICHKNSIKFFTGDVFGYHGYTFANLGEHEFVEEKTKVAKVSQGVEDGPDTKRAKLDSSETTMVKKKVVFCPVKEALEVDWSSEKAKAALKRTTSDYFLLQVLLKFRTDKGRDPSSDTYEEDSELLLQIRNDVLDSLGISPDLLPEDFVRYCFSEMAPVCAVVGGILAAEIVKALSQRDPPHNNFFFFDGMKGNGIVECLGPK
T1 sequence (Q9UBT2 1-640): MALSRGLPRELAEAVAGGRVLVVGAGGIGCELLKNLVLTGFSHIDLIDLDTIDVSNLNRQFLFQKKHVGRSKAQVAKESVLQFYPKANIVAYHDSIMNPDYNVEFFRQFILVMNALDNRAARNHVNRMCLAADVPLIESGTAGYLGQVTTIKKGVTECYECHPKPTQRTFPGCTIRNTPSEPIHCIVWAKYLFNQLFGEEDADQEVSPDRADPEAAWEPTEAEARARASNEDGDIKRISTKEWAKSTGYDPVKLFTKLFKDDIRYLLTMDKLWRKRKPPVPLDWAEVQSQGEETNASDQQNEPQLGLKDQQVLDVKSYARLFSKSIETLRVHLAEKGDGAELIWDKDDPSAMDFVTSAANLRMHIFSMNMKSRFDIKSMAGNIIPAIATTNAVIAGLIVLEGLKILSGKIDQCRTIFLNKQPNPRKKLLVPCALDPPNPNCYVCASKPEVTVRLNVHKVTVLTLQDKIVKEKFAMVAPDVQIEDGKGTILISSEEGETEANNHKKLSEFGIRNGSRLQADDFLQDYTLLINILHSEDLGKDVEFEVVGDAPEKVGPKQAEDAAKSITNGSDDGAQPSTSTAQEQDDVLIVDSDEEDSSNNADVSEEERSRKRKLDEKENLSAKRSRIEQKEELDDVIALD
Assay: SUMO E1 activity assays with SAE1 Q312A mutant
Type: biochemical
Procedure: Figure 3 SUMO-specific activating enzyme, E1, is a direct target of N106. Mechanism of action of N106 on individual steps in the SUMOylation cascade in vitro. (a) Inorganic pyrophosphate resulting from ATP hydrolysis in E1-catalysed SUMO-1 activation in the presence of increasing concentration of N106 compound was assessed by fluorogenic pyrophosphate assay kit. Recombinant human SUMO-specific E1 (0.05 μM), human Ubc9 (0.25 μM), human SUMO-1 (12.5 μM) and ATP (1 mM) were incubated with increasing concentration of N106 for 30 min at 37 °C and quantified using a fluorescence microplate reader. (b) The SAE2-SUMO-1 conjugation was detected followed by western blotting with anti-SAE2 antibodies. SUMO E1 (0.05 μM), SUMO-1 (12.5 μM) and ATP (1 mM) were co-incubated with increasing concentration of N106 for 30 min at 37 °C. The reaction mixtures were separated on 7.5% SDS–PAGE gel under non-reducing conditions. (c) E2-SUMO-1 conjugation was visualized by western blotting with anti-Ubc9 antibody. SUMO E1 (0.05 μM), Ubc9 (0.25 μM), SUMO-1 (12.5 μM) and ATP (1 mM) were incubated without or with increasing concentration of N106 for 30 min at 37 °C. […] (e) ATP hydrolytic activity of WT and mutant SUMO E1 are determined. (f) The E1-SUMO-1 conjugation was detected followed by western blot analysis with anti-SAE2 antibody. *The SAE2-SUMO-1 conjugated bands. […]

ATP hydrolysis activity with N106, compared with wild-type protein (Q312A mutant): significantly lower
SUMO E1-SUMO and SUMO E2-SUMO conjugations in the presence of N106, compared with WT (Q312A mutant SAE1): weaker
Compound: COc1ccc(-c2nnc(Nc3nc4c(OC)cccc4s3)o2)cc1 [Compound N106, N-(4-methoxybenzo[d]thiazol-2-yl)-5-(4-methoxyphenyl)-1,3,4-oxadiazol-2-amine]
